Data from patent US20260167622A1, “PAN-KRAS DEGRADING AGENT, AND PREPARATION METHOD THEREFOR AND USE THEREOF” (LEADINGTAC PHARMACEUTICAL (SHAOXING) CO., LTD., priority 2022, published 2026).

Key:
Settings in all cases: 25° C., 1 h
Human KRAS WT = biological target: T1, Human KRAS WT (Homo sapiens, UniProt P01116); assay: KRAS WT:GTP binding assay (HTRF kit)
T1 construct: purchased PerkinElmer
Protocol: Test Example 3: KRAS WT Binding Assay
In this method, the inhibitory effects of the compounds on the binding of KRAS WT to GTP were assayed by a homogeneous time-resolved fluorescence (HTRF) technique using a KRAS WT:GTP binding assay kit (PerkinElmer).
(§1) The experimental procedures were as follows (refer to the kit instructions for detailed test methods): the compounds of the present disclosure were each firstly dissolved in DMSO at a stock concentration of 20 mM. The stock solutions of the compounds were diluted in an equal gradient with DMSO, and then were subjected to second dilution with a buffer in the kit, so that the final concentrations of the test compounds in the reaction system were in a range of 0.02-5000 nM, and the final concentration of DMSO was 0.5%. […] After the incubation was completed, the fluorescence intensity of each well was measured at the excitation wavelength of 337 nm and the emission wavelengths of 620 nm and 665 nm with an EnVision microplate reader (PerkinElmer) in the HTRF mode, and Ratio values were calculated using the formula: Ratio=(665 nm/620 nm)×104. The inhibition rates of the compounds at each concentration were calculated by comparing the fluorescence intensity ratio with that of the control group. […]

Human KRAS G12C = biological target: T2, Human KRAS G12C (Homo sapiens, UniProt P01116, G12C); assay: KRAS G12C:GTP binding assay (HTRF kit)
T2 construct: purchased PerkinElmer
T2 sequence (P01116 1-188 isoform P01116-2 G12C): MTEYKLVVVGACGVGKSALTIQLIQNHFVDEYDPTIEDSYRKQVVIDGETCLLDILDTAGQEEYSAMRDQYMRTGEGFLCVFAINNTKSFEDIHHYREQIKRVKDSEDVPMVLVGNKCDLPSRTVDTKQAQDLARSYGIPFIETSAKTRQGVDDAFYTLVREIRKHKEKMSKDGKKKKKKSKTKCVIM
Protocol: Test Example 4: KRAS G12C Binding Assay
In this method, the inhibitory effects of the compounds on the binding of KRAS G12C to GTP were assayed by a homogeneous time-resolved fluorescence (HTRF) technique using a KRAS G12C:GTP binding assay kit (PerkinElmer).
as §1

Human KRAS G12D = biological target: T3, Human KRAS G12D (Homo sapiens, UniProt P01116, G12D); assay: KRAS-G12D/GTP binding assay (HTRF kit)
T3 construct: purchased PerkinElmer
T3 sequence (P01116 1-188 isoform P01116-2 G12D): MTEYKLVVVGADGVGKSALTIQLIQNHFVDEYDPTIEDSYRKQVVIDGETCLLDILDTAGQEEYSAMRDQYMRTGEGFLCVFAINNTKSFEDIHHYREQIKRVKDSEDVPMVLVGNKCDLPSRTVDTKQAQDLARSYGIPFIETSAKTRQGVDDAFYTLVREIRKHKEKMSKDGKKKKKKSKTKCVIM
Protocol: Test Example 1: KRAS G12D Binding Assay
In this method, the inhibitory effects of the compounds on the binding of KLRAS G12D to GTP were assayed by a homogeneous time-resolved fluorescence (HTRF) technique using a KLRAS-G12D/GTP binding assay kit (PerkinElmer).
as §1, with “a” for “a stock”, “mM, and then” for “mM. The stock solutions of the compounds were”, “gradient” for “gradient with DMSO, and then were subjected to second dilution”, “nm)×[…].” for “nm)×104.”

T1 sequence (P01116 1-188 isoform P01116-2): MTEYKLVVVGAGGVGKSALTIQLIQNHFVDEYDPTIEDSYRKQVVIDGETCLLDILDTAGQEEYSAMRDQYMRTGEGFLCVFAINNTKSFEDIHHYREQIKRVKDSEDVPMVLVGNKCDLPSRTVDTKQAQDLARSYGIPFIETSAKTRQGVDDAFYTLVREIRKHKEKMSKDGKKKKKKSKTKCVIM

Compound: C#Cc1c(F)ccc2cc(O)cc(-c3ncc4c(N5CCC[C@@](C)(O)C5)nc(OCC5(CN6CCN(CC7CCC8(CC7)CCN(C(=O)c7ccc(Cl)c(N9CCC(=O)NC9=O)c7)CC8)CC6)CC5)nc4c3F)c12 [Example 1, (R)-1-(2-chloro-5-(9-((4-((1-(((7-(8-ethynyl-7-fluoro-3-hydroxynaphthalen-1-yl)-8-fluoro-4-(3-hydroxy-3-methylpiperidin-1-yl)pyrido[4,3-d]pyrimidin-2-yl)oxy)methyl)cyclopropyl)methyl)piperazin-1-yl)methyl)-3-azaspiro[5.5]undecane-3-carbonyl)phenyl)dihydropyrimidine-2,4(1H,3H)-dione]
- IC50 (Human KRAS WT): 1 to 10 µM
- IC50 (Human KRAS G12C): 0.5 to 1 µM
- IC50 (Human KRAS G12D): ≤ 0.5 µM

Compound: CCc1cccc2cc(O)cc(-c3ncc4c(N5CCC[C@@](C)(O)C5)nc(OCC5(CN6CCN(CC7CCC8(CC7)CCN(C(=O)c7ccc(Cl)c(N9CCC(=O)NC9=O)c7)CC8)CC6)CC5)nc4c3F)c12 [Example 3, (R)-1-(2-chloro-5-(9-((4-((1-(((7-(8-ethyl-3-hydroxynaphthalen-1-yl)-8-fluoro-4-(3-hydroxy-3-methylpiperidin-1-yl)pyrido[4,3-d]pyrimidin-2-yl)oxy)methyl)cyclopropyl)methyl)piperazin-1-yl)methyl)-3-azaspiro[5.5]undecane-3-carbonyl)phenyl)dihydropyrimidine-2,4(1H,3H)-dione]
- IC50 (Human KRAS WT): 0.5 to 1 µM
- IC50 (Human KRAS G12C): ≤ 0.5 µM
- IC50 (Human KRAS G12D): ≤ 0.5 µM
